# Experimental data taken from US20260262643A1, “HERBICIDAL BENZOXAZINES” (FMC CORPORATION, priority 2022, published 2026).
# Assays:
# barnyardgrass [1] = experiment: Test C preemergence; type: in vivo, Echinochloa crusgalli; conditions: 0 to 100 scale (0 no effect, 100 complete control)
# Summary of the method: (§1)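 Seeds sown in loam soil–sand blend received a directed preemergence soil spray of test chemical in non-phytotoxic solvent with surfactant; postemergence plants (2–10 cm, one- to two-leaf stage) were sprayed with the same formulation. Greenhouse-held 10 days, then visually rated for injury versus untreated controls, 0 (no effect) to 100 (complete control).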
# blackgrass [2] = experiment: Test C preemergence; type: in vivo, Alopecurus myosuroides; conditions: 0 to 100 scale (0 no effect, 100 complete control)
# Summary of the method: as §1
# corn [3] = experiment: Test C preemergence; type: in vivo, Zea mays; conditions: 0 to 100 scale (0 no effect, 100 complete control)
# Summary of the method: as §1
# green foxtail [4] = experiment: Test C preemergence; type: in vivo, Setaria viridis; conditions: 0 to 100 scale (0 no effect, 100 complete control)
# Summary of the method: as §1
# kochia [5] = experiment: Test C preemergence; type: in vivo, Bassia scoparia; conditions: 0 to 100 scale (0 no effect, 100 complete control)
# Summary of the method: as §1
# oat, wild [6] = experiment: Test C preemergence; type: in vivo, Avena fatua; conditions: 0 to 100 scale (0 no effect, 100 complete control)
# Summary of the method: as §1
# pigweed, palmer [7] = experiment: Test C preemergence; type: in vivo, Amaranthus palmeri; conditions: 0 to 100 scale (0 no effect, 100 complete control)
# Summary of the method: as §1
# ragweed [8] = experiment: Test C preemergence; type: in vivo, Ambrosia artemisiifolia; conditions: 0 to 100 scale (0 no effect, 100 complete control)
# Summary of the method: as §1
# ryegrass, Italian [9] = experiment: Test C preemergence; type: in vivo, Lolium multiflorum; conditions: 0 to 100 scale (0 no effect, 100 complete control)
# Summary of the method: as §1
# soybean [10] = experiment: Test C preemergence; type: in vivo, Glycine max; conditions: 0 to 100 scale (0 no effect, 100 complete control)
# Summary of the method: as §1
# wheat [11] = experiment: Test C preemergence; type: in vivo, Triticum aestivum; conditions: 0 to 100 scale (0 no effect, 100 complete control)
# Summary of the method: as §1
# barnyardgrass [12] = experiment: Test C postemergence; type: in vivo, Echinochloa crusgalli; conditions: 10 days
# Summary of the method: as §1
# blackgrass [13] = experiment: Test C postemergence; type: in vivo, Alopecurus myosuroides; conditions: 10 days
# Summary of the method: as §1
# corn [14] = experiment: Test C postemergence; type: in vivo, Zea mays; conditions: 10 days
# Summary of the method: as §1
# green foxtail [15] = experiment: Test C postemergence; type: in vivo, Setaria viridis; conditions: 10 days
# Summary of the method: as §1
# kochia [16] = experiment: Test C postemergence; type: in vivo, Bassia scoparia; conditions: 10 days
# Summary of the method: as §1
# oat, wild [17] = experiment: Test C postemergence; type: in vivo, Avena fatua; conditions: 10 days
# Summary of the method: as §1
# pigweed, palmer [18] = experiment: Test C postemergence; type: in vivo, Amaranthus palmeri; conditions: 10 days
# Summary of the method: as §1
# ragweed [19] = experiment: Test C postemergence; type: in vivo, Ambrosia artemisiifolia; conditions: 10 days
# Summary of the method: as §1
# ryegrass, Italian [20] = experiment: Test C postemergence; type: in vivo, Lolium multiflorum; conditions: 10 days
# Summary of the method: as §1
# soybean [21] = experiment: Test C postemergence; type: in vivo, Glycine max; conditions: 10 days
# Summary of the method: as §1
# wheat [22] = experiment: Test C postemergence; type: in vivo, Triticum aestivum; conditions: 10 days
# Summary of the method: as §1
# galium = experiment: Test C postemergence; type: in vivo, Galium aparine; conditions: 10 days
# Summary of the method: as §1
# horseweed = experiment: Test C postemergence; type: in vivo, Erigeron canadensis; conditions: 10 days
# Summary of the method: as §1
# barnyardgrass [23] = experiment: Test D flooded paddy test; type: in vivo, Echinochloa crus-galli; conditions: 250 g ai/ha, applied to paddy water, visual rating after 13 to 14 days, scale 0 to 100 (0 no effect, 100 complete control)
# Summary of the method: (§2)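 Plants at the 2-leaf stage were grown in pots flooded to 3 cm, and compound was applied directly into the paddy water, with depth kept throughout. After 13–14 days in a greenhouse, injury was rated visually against untreated controls on a 0–100 scale (100 = complete control); a dash means not tested.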
# ducksalad = experiment: Test D flooded paddy test; type: in vivo, Heteranthera limosa; conditions: 250 g ai/ha, applied to paddy water, visual rating after 13 to 14 days, scale 0 to 100 (0 no effect, 100 complete control)
# Summary of the method: as §2
# rice = experiment: Test D flooded paddy test; type: in vivo, Oryza sativa; conditions: 250 g ai/ha, applied to paddy water, visual rating after 13 to 14 days, scale 0 to 100 (0 no effect, 100 complete control)
# Summary of the method: as §2
# sedge, umbrella = experiment: Test D flooded paddy test; type: in vivo, Cyperus difformis; conditions: 250 g ai/ha, applied to paddy water, visual rating after 13 to 14 days, scale 0 to 100 (0 no effect, 100 complete control)
# Summary of the method: as §2
# [24] = Preemergence, 500 g ai/ha, visual rating after 10 days
# [25] = Test C, preemergence, 125 g ai/ha
# [26] = 125 g ai/ha, postemergence, 0 to 100 scale, 0 no effect, 100 complete control
# [27] = Postemergence, 500 g ai/ha, visual 0 to 100 scale (0 no effect, 100 complete control)
compound,measurement,setting,value
Cc1ccc(-n2cnc(C(C)C)n2)cc1C(=O)N1C[C@H](C)Oc2c(F)cccc21 [Compound 242],"Plant response rating, Barnyardgrass",barnyardgrass [1]; [24],100
same,Barnyardgrass plant response rating,barnyardgrass [1]; [25],100
same,"Plant response rating, Blackgrass",blackgrass [2]; [24],90
same,Blackgrass plant response rating,blackgrass [2]; [25],90
same,"Plant response rating, Corn",corn [3]; [24],70
same,Corn plant response rating,corn [3]; [25],30
same,"Plant response rating, Foxtail, Green",green foxtail [4]; [24],100
same,"Foxtail, Green plant response rating",green foxtail [4]; [25],100
same,"Plant response rating, Kochia",kochia [5]; [24],100
same,Kochia plant response rating,kochia [5]; [25],90
same,"Plant response rating, Oat, Wild","oat, wild [6]; [24]",90
same,"Oat, Wild plant response rating","oat, wild [6]; [25]",90
same,"Plant response rating, Pigweed, Palmer","pigweed, palmer [7]; [24]",100
same,"Pigweed, Palmer plant response rating","pigweed, palmer [7]; [25]",100
same,"Plant response rating, Ragweed",ragweed [8]; [24],100
same,Ragweed plant response rating,ragweed [8]; [25],0
same,"Plant response rating, Ryegrass, Italian","ryegrass, Italian [9]; [24]",100
same,"Ryegrass, Italian plant response rating","ryegrass, Italian [9]; [25]",100
same,"Plant response rating, Soybean",soybean [10]; [24],100
same,Soybean plant response rating,soybean [10]; [25],90
same,"Plant response rating, Wheat",wheat [11]; [24],90
same,Wheat plant response rating,wheat [11]; [25],60
same,"Plant response rating, Barnyardgrass",barnyardgrass [12]; [26],90
same,"Plant response rating, Barnyardgrass",barnyardgrass [12]; [27],100
same,"Plant response rating, Blackgrass",blackgrass [13]; [26],80
same,"Plant response rating, Blackgrass",blackgrass [13]; [27],100
same,"Plant response rating, Corn",corn [14]; [26],60
same,"Plant response rating, Corn",corn [14]; [27],90
same,"Plant response rating, Foxtail, Green",green foxtail [15]; [26],80
same,"Plant response rating, Foxtail, Green",green foxtail [15]; [27],90
same,"Plant response rating, Kochia",kochia [16]; [26],30
same,"Plant response rating, Kochia",kochia [16]; [27],80
same,"Plant response rating, Oat, Wild","oat, wild [17]; [26]",80
same,"Plant response rating, Oat, Wild","oat, wild [17]; [27]",90
same,"Plant response rating, Pigweed, Palmer","pigweed, palmer [18]; [26]",80
same,"Plant response rating, Pigweed, Palmer","pigweed, palmer [18]; [27]",90
same,"Plant response rating, Ragweed",ragweed [19]; [26],60
same,"Plant response rating, Ragweed",ragweed [19]; [27],90
same,"Plant response rating, Ryegrass, Italian","ryegrass, Italian [20]; [26]",90
same,"Plant response rating, Ryegrass, Italian","ryegrass, Italian [20]; [27]",100
same,"Plant response rating, Soybean",soybean [21]; [26],100
same,"Plant response rating, Soybean",soybean [21]; [27],100
same,"Plant response rating, Wheat",wheat [22]; [26],80
same,"Plant response rating, Wheat",wheat [22]; [27],90
same,"Plant response rating, Galium",galium; [26],100
same,"Plant response rating, Galium",galium; [27],100
same,"Plant response rating, Horseweed",horseweed; [26],50
same,"Plant response rating, Horseweed",horseweed; [27],80
same,"Plant response rating, Barnyardgrass (Flood)",barnyardgrass [23],55
same,"Plant response rating, Ducksalad (Flood)",ducksalad,95
same,"Plant response rating, Rice (Flood)",rice,15
same,"Plant response rating, Sedge, Umbrella (Flood)","sedge, umbrella",98
